Test results taken from the supplement of paper PMC10307832.

Assays:
Assay in all cases: relative viability (nuclei count vs DMSO), 5 days (fraction); higher = more cells survive
[1] = system: NCI-H1755
Procedure, shortened: (§1)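 Lung cancer cell lines were pin-tool dosed in 1536-well plates on the day after seeding, with either a lone drug or a fixed anchor-drug dose plus five library-drug doses (not always all listed) in √10 steps. Nuclei were counted on 4× images after 5 days. Relative viability is the ratio of treated-well to vehicle-well nuclei counts, with each value a median of duplicate plates.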

[2] = system: NCI-H1666
Procedure, shortened: as §1

[3] = system: NCI-H2085
Procedure, shortened: as §1

[4] = system: NCI-H358
Procedure, shortened: as §1

[5] = system: NCI-H3122
Procedure, shortened: as §1

[6] = system: ChaGo-K-1
Procedure, shortened: as §1

[7] = system: NCI-H1355
Procedure, shortened: as §1

[8] = system: NCI-H441
Procedure, shortened: as §1

[9] = system: NCI-H2347
Procedure, shortened: as §1

[10] = system: NCI-H1944
Procedure, shortened: as §1

[11] = system: NCI-H838
Procedure, shortened: as §1

[12] = system: NCI-H520
Procedure, shortened: as §1

[13] = system: EKVX
Procedure, shortened: as §1

[14] = system: LK-2
Procedure, shortened: as §1

[15] = system: NCI-H460
Procedure, shortened: as §1

[16] = system: NCI-H2228
Procedure, shortened: as §1

[17] = system: SW 1573
Procedure, shortened: as §1

[18] = system: NCI-H322M
Procedure, shortened: as §1

[19] = system: H3255
Procedure, shortened: as §1

[20] = system: A-427
Procedure, shortened: as §1

[21] = system: NCI-H650
Procedure, shortened: as §1

[22] = system: NCI-H596
Procedure, shortened: as §1

[23] = system: NCI-H1650
Procedure, shortened: as §1

Cc1cnc(-c2cnc(NCCNc3ccc(C#N)cn3)nc2-c2ccc(Cl)cc2Cl)[nH]1 + Nc1nc2[nH]cc(CCc3ccc(C(=O)N[C@@H](CCC(=O)O)C(=O)O)cc3)c2c(=O)[nH]1 [Pemetrexed] (partner 0.2 µM)
relative viability ([1]; first compound 0.08 µM): 0.403 | relative viability ([1]; first compound 0.253 µM): 0.437 | relative viability ([1]; first compound 0.8 µM): 0.421 | relative viability ([1]; first compound 2.53 µM): 0.565 | relative viability ([2]; first compound 0.08 µM): 0.91 | relative viability ([2]; first compound 0.253 µM): 0.824 | relative viability ([2]; first compound 0.8 µM): 0.843 | relative viability ([2]; first compound 2.53 µM): 0.747 | relative viability ([3]; first compound 0.08 µM): 1.01 | relative viability ([3]; first compound 0.253 µM): 0.852 | relative viability ([3]; first compound 0.8 µM): 0.885 | relative viability ([3]; first compound 2.53 µM): 0.955 | relative viability ([4]; first compound 0.08 µM): 0.168 | relative viability ([4]; first compound 0.253 µM): 0.182 | relative viability ([4]; first compound 0.8 µM): 0.184 | relative viability ([4]; first compound 2.53 µM): 0.16 | relative viability ([5]; first compound 0.08 µM): 0.201 | relative viability ([5]; first compound 0.8 µM): 0.183 | relative viability ([5]; first compound 2.53 µM): 0.174 | relative viability ([6]; first compound 0.08 µM): 0.252 | relative viability ([6]; first compound 0.253 µM): 0.265 | relative viability ([6]; first compound 0.8 µM): 0.259 | relative viability ([6]; first compound 2.53 µM): 0.248 | relative viability ([7]; first compound 0.08 µM): 1.06 | relative viability ([7]; first compound 0.253 µM): 0.907 | relative viability ([7]; first compound 0.8 µM): 0.991 | relative viability ([7]; first compound 2.53 µM): 0.915 | relative viability ([8]; first compound 0.08 µM): 0.271 | relative viability ([8]; first compound 0.8 µM): 0.279 | relative viability ([8]; first compound 2.53 µM): 0.236 | relative viability ([9]; first compound 0.08 µM): 0.44 | relative viability ([9]; first compound 0.253 µM): 0.42 | relative viability ([9]; first compound 0.8 µM): 0.398 | relative viability ([9]; first compound 2.53 µM): 0.431 | relative viability ([10]; first compound 0.08 µM): 0.604 | relative viability ([10]; first compound 0.8 µM): 0.633 | relative viability ([10]; first compound 2.53 µM): 0.678 | relative viability ([11]; first compound 0.08 µM): 0.249 | relative viability ([11]; first compound 0.253 µM): 0.247 | relative viability ([11]; first compound 0.8 µM): 0.236 | relative viability ([11]; first compound 2.53 µM): 0.243 | relative viability ([12]; first compound 0.08 µM): 0.729 | relative viability ([12]; first compound 0.253 µM): 0.727 | relative viability ([12]; first compound 0.8 µM): 0.74 | relative viability ([12]; first compound 2.53 µM): 0.492 | relative viability ([13]; first compound 0.08 µM): 0.455 | relative viability ([13]; first compound 0.253 µM): 0.358 | relative viability ([13]; first compound 0.8 µM): 0.339 | relative viability ([14]; first compound 0.08 µM): 0.242 | relative viability ([14]; first compound 0.253 µM): 0.252 | relative viability ([14]; first compound 2.53 µM): 0.253 | relative viability ([15]; first compound 0.08 µM): 0.073 | relative viability ([15]; first compound 0.253 µM): 0.0754 | relative viability ([15]; first compound 0.8 µM): 0.0676 | relative viability ([15]; first compound 2.53 µM): 0.0722 | relative viability ([16]; first compound 0.08 µM): 0.36 | relative viability ([16]; first compound 0.8 µM): 0.386 | relative viability ([16]; first compound 2.53 µM): 0.288 | relative viability ([17]; first compound 0.08 µM): 1.06 | relative viability ([17]; first compound 0.253 µM): 0.797 | relative viability ([17]; first compound 0.8 µM): 0.551 | relative viability ([17]; first compound 2.53 µM): 0.364 | relative viability ([18]; first compound 0.08 µM): 0.603 | relative viability ([18]; first compound 0.253 µM): 0.584 | relative viability ([18]; first compound 0.8 µM): 0.548 | relative viability ([18]; first compound 2.53 µM): 0.562 | relative viability ([19]; first compound 0.08 µM): 0.555 | relative viability ([19]; first compound 0.253 µM): 0.587 | relative viability ([19]; first compound 0.8 µM): 0.533 | relative viability ([19]; first compound 2.53 µM): 0.508 | relative viability ([20]; first compound 0.08 µM): 0.981 | relative viability ([20]; first compound 0.253 µM): 0.901 | relative viability ([20]; first compound 0.8 µM): 0.928 | relative viability ([20]; first compound 2.53 µM): 0.927 | relative viability ([21]; first compound 0.08 µM): 0.915 | relative viability ([21]; first compound 0.253 µM): 0.92 | relative viability ([21]; first compound 0.8 µM): 0.934 | relative viability ([21]; first compound 2.53 µM): 0.904 | relative viability ([22]; first compound 0.08 µM): 0.531 | relative viability ([22]; first compound 0.253 µM): 0.485 | relative viability ([22]; first compound 0.8 µM): 0.49 | relative viability ([22]; first compound 2.53 µM): 0.53 | relative viability ([23]; first compound 0.08 µM): 0.356 | relative viability ([23]; first compound 0.253 µM): 0.361 | relative viability ([23]; first compound 0.8 µM): 0.315 | relative viability ([23]; first compound 2.53 µM): 0.289

Cc1cnc(-c2cnc(NCCNc3ccc(C#N)cn3)nc2-c2ccc(Cl)cc2Cl)[nH]1 + O=C(CCCCCCC(=O)Nc1ccccc1)NO [Vorinostat] (partner 1 µM)
relative viability ([1]; first compound 0.08 µM): 0.826 | relative viability ([1]; first compound 0.253 µM): 0.684 | relative viability ([1]; first compound 0.8 µM): 0.745 | relative viability ([1]; first compound 2.53 µM): 0.823 | relative viability ([2]; first compound 0.08 µM): 0.899 | relative viability ([2]; first compound 0.253 µM): 1.05 | relative viability ([2]; first compound 0.8 µM): 0.964 | relative viability ([2]; first compound 2.53 µM): 1.1 | relative viability ([3]; first compound 0.08 µM): 0.886 | relative viability ([3]; first compound 0.253 µM): 0.769 | relative viability ([3]; first compound 0.8 µM): 0.824 | relative viability ([3]; first compound 2.53 µM): 0.997 | relative viability ([4]; first compound 0.08 µM): 0.787 | relative viability ([4]; first compound 0.253 µM): 0.686 | relative viability ([4]; first compound 0.8 µM): 0.69 | relative viability ([4]; first compound 2.53 µM): 0.585 | relative viability ([5]; first compound 0.08 µM): 0.989 | relative viability ([5]; first compound 0.8 µM): 0.934 | relative viability ([5]; first compound 2.53 µM): 0.951 | relative viability ([6]; first compound 0.08 µM): 0.742 | relative viability ([6]; first compound 0.253 µM): 0.649 | relative viability ([6]; first compound 0.8 µM): 0.604 | relative viability ([6]; first compound 2.53 µM): 0.664 | relative viability ([7]; first compound 0.08 µM): 0.632 | relative viability ([7]; first compound 0.253 µM): 0.544 | relative viability ([7]; first compound 0.8 µM): 0.633 | relative viability ([7]; first compound 2.53 µM): 0.651 | relative viability ([8]; first compound 0.08 µM): 0.823 | relative viability ([8]; first compound 0.8 µM): 0.737 | relative viability ([8]; first compound 2.53 µM): 0.738 | relative viability ([9]; first compound 0.08 µM): 0.56 | relative viability ([9]; first compound 0.253 µM): 0.568 | relative viability ([9]; first compound 0.8 µM): 0.604 | relative viability ([9]; first compound 2.53 µM): 0.597 | relative viability ([10]; first compound 0.08 µM): 0.591 | relative viability ([10]; first compound 0.8 µM): 0.614 | relative viability ([10]; first compound 2.53 µM): 0.566 | relative viability ([11]; first compound 0.08 µM): 0.726 | relative viability ([11]; first compound 0.253 µM): 0.723 | relative viability ([11]; first compound 0.8 µM): 0.856 | relative viability ([11]; first compound 2.53 µM): 1.06 | relative viability ([12]; first compound 0.08 µM): 0.814 | relative viability ([12]; first compound 0.253 µM): 0.678 | relative viability ([12]; first compound 0.8 µM): 0.725 | relative viability ([12]; first compound 2.53 µM): 0.772 | relative viability ([13]; first compound 0.08 µM): 0.789 | relative viability ([13]; first compound 0.253 µM): 0.529 | relative viability ([13]; first compound 0.8 µM): 0.658 | relative viability ([13]; first compound 2.53 µM): 0.745 | relative viability ([14]; first compound 0.08 µM): 0.274 | relative viability ([14]; first compound 0.253 µM): 0.331 | relative viability ([14]; first compound 0.8 µM): 0.286 | relative viability ([14]; first compound 2.53 µM): 0.318 | relative viability ([15]; first compound 0.08 µM): 0.71 | relative viability ([15]; first compound 0.253 µM): 0.618 | relative viability ([15]; first compound 0.8 µM): 0.625 | relative viability ([15]; first compound 2.53 µM): 0.58 | relative viability ([16]; first compound 0.08 µM): 0.891 | relative viability ([16]; first compound 0.253 µM): 0.642 | relative viability ([16]; first compound 0.8 µM): 0.668 | relative viability ([16]; first compound 2.53 µM): 0.693 | relative viability ([17]; first compound 0.08 µM): 0.849 | relative viability ([17]; first compound 0.253 µM): 0.815 | relative viability ([17]; first compound 0.8 µM): 0.463 | relative viability ([17]; first compound 2.53 µM): 0.224 | relative viability ([18]; first compound 0.08 µM): 0.843 | relative viability ([18]; first compound 0.253 µM): 0.878 | relative viability ([18]; first compound 0.8 µM): 0.874 | relative viability ([18]; first compound 2.53 µM): 1.53 | relative viability ([19]; first compound 0.08 µM): 0.599 | relative viability ([19]; first compound 0.253 µM): 0.717 | relative viability ([19]; first compound 0.8 µM): 0.754 | relative viability ([19]; first compound 2.53 µM): 0.829 | relative viability ([20]; first compound 0.08 µM): 0.868 | relative viability ([20]; first compound 0.253 µM): 0.826 | relative viability ([20]; first compound 0.8 µM): 0.826 | relative viability ([20]; first compound 2.53 µM): 0.854 | relative viability ([21]; first compound 0.08 µM): 0.544 | relative viability ([21]; first compound 0.253 µM): 0.423 | relative viability ([21]; first compound 0.8 µM): 0.4 | relative viability ([21]; first compound 2.53 µM): 0.443 | relative viability ([22]; first compound 0.08 µM): 0.544 | relative viability ([22]; first compound 0.253 µM): 0.568 | relative viability ([22]; first compound 0.8 µM): 0.501 | relative viability ([22]; first compound 2.53 µM): 0.688 | relative viability ([23]; first compound 0.08 µM): 0.564 | relative viability ([23]; first compound 0.253 µM): 0.508 | relative viability ([23]; first compound 0.8 µM): 0.546 | relative viability ([23]; first compound 2.53 µM): 0.661
